By EC50 is commonly meant the concentration that produces a half-maximal response.

T2 sequence (Q14833 whole entry): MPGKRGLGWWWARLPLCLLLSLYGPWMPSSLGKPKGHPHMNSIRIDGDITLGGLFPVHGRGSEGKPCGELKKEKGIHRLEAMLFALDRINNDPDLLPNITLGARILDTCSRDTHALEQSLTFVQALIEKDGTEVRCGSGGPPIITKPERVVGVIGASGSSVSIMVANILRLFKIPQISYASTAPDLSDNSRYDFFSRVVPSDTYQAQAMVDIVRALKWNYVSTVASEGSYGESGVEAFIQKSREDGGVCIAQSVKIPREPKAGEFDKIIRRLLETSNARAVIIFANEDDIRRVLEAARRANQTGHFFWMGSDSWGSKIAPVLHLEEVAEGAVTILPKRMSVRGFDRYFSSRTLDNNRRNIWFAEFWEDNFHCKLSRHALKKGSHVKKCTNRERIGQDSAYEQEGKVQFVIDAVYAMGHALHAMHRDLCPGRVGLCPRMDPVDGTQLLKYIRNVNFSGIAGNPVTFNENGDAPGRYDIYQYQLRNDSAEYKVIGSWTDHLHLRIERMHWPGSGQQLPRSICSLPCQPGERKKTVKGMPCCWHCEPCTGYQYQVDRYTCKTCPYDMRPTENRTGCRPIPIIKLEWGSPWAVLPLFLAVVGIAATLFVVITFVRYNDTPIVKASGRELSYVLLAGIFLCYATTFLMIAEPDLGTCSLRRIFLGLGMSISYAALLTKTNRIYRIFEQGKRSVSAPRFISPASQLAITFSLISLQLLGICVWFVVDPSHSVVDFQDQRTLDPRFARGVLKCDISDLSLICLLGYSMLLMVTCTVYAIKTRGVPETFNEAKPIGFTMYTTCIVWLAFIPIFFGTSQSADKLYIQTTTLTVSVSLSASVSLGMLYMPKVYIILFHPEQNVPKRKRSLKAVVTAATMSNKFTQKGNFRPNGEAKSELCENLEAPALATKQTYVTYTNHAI

For the first assay, the target named is T1, Metabotropic glutamate receptor 1 (Homo sapiens, UniProt Q13255). Kind of assay: Positive allosteric modulation of human mGluR1 by calcium mobilization assay. It counts as functional.
Details: not given
Target sequence in this assay (Q13255 whole entry): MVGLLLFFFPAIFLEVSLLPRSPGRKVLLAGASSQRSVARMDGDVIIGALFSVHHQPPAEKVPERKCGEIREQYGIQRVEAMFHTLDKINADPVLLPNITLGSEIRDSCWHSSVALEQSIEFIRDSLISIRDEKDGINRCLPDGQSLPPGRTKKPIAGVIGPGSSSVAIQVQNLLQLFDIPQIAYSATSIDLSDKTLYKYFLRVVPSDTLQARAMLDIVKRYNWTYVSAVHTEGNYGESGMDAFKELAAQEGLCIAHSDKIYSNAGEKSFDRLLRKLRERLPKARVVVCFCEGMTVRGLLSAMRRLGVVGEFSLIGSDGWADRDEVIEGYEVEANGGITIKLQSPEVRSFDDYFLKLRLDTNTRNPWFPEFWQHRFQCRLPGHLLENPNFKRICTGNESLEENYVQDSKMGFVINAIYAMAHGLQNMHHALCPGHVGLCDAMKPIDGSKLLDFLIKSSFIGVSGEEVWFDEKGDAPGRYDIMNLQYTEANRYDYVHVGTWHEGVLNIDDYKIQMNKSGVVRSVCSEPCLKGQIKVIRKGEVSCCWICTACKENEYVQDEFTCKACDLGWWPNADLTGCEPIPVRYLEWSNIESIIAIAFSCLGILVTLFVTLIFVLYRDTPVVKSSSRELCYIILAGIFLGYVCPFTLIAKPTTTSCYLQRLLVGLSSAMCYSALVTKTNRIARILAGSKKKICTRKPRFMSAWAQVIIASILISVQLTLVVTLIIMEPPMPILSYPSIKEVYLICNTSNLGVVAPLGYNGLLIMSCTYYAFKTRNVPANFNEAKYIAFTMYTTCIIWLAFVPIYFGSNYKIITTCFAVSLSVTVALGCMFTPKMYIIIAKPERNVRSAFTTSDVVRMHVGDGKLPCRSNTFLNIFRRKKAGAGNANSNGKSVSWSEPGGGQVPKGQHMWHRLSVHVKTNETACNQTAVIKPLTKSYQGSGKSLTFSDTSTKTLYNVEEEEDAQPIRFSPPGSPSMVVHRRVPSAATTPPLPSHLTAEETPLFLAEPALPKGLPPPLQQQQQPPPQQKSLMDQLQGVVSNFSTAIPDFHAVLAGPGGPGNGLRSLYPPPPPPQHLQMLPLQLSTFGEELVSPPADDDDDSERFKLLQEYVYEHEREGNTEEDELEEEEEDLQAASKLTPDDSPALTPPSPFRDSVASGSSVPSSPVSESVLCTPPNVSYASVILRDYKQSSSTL
On to `Cc1ccoc1C(=O)Nc1cnc(N2C(=O)c3ccccc3C2=O)nc1`, for which the concentration for a half-maximal effect (EC50) was 4680 nM.

As to `Cc1ccoc1C(=O)Nc1ccc(N2C(=O)c3cccc(C)c3C2=O)c2ccccc12`, the EC50 turned out to be 15.8 nM.

As to `Cc1ccoc1C(=O)Nc1ccc(N2C(=O)c3cccc(F)c3C2=O)nc1`, the EC50 was found to be 200 nM.

Consider `Cc1ccoc1C(=O)Nc1ccc(N2C(=O)c3cccc(C)c3C2=O)nc1`, for which the half-maximal effective concentration (EC50) was determined as 95.5 nM.

As to `Cc1ccoc1C(=O)Nc1cnc(N2C(=O)c3cccc(C)c3C2=O)nc1`, the EC50 stood at 759 nM.

Regarding `Cc1ccoc1C(=O)Nc1ccc(N2C(=O)c3cccc(Cl)c3C2=O)c(C(F)(F)F)c1`, the EC50 was found to be 105 nM.

Consider `Cc1ccoc1C(=O)Nc1ccc(N2C(=O)c3ccccc3C2=O)cn1`, for which the 50% effective concentration (EC50) was more than 10000 nM.

As to `Cc1cc(NC(=O)c2occc2C)ccc1N1C(=O)c2cccc(C)c2C1=O`, the concentration giving a half-maximal response (EC50) worked out at 21.4 nM.

For the molecule `Cc1cc(NC(=O)c2occc2C)ccc1N1C(=O)c2cccc(Cl)c2C1=O`, the EC50 was found to be 49 nM.

With `Cc1ccoc1C(=O)Nc1ccc(N2C(=O)c3cccc(Cl)c3C2=O)cc1`, the EC50 turned out to be 28.8 nM.

Take `Cc1ccoc1C(=O)Nc1ccc(N2C(=O)c3cccc(F)c3C2=O)c(F)c1`: the EC50 was found to be 34.7 nM.

Take `COc1cc(NC(=O)c2occc2C)ccc1N1C(=O)c2ccccc2C1=O`: the EC50 is 46.8 nM.

Regarding `Cc1ccoc1C(=O)Nc1ccc(N2C(=O)c3cccc(F)c3C2=O)c2ccccc12`, the EC50 came out at 19.5 nM.

In the case of `COc1cc(NC(=O)c2occc2C)ccc1N1C(=O)c2cccc(C)c2C1=O`, the EC50 is 49 nM.

As to `Cc1cc(N2C(=O)c3ccccc3C2=O)ccc1NC(=O)c1occc1C`, the concentration for a half-maximal effect (EC50) turned out to be 15.1 nM.

Regarding `Cc1ccoc1C(=O)Nc1cnc(N2C(=O)c3cccc(F)c3C2=O)nc1`, the EC50 stood at 5370 nM.

In the case of `Cc1ccoc1C(=O)Nc1ccc(N2C(=O)c3ccccc3C2=O)cc1`, the EC50 came to 47.9 nM.

As for `Cc1ccoc1C(=O)Nc1ncc(N2C(=O)c3ccccc3C2=O)cn1`, the EC50 is more than 10000 nM.

Still in this assay, the particulars now being: read-out: EC50.
In the case of `Cc1ccoc1C(=O)Nc1cnc(N2C(=O)c3ccccc3C2=O)nc1`, the concentration for a half-maximal effect (EC50) was 4610 nM.

Consider `Cc1ccoc1C(=O)Nc1ccc(N2C(=O)c3cccc(C)c3C2=O)c2ccccc12`, for which the EC50 is 16 nM.

`Cc1ccoc1C(=O)Nc1ccc(N2C(=O)c3cccc(F)c3C2=O)nc1`: the EC50 came out at 198 nM.

In the case of `Cc1ccoc1C(=O)Nc1ccc(N2C(=O)c3cccc(C)c3C2=O)nc1`, the EC50 came to 95 nM.

Take `Cc1ccoc1C(=O)Nc1cnc(N2C(=O)c3cccc(C)c3C2=O)nc1`: the EC50 was 751 nM.

For `Cc1ccoc1C(=O)Nc1ccc(N2C(=O)c3cccc(Cl)c3C2=O)c(C(F)(F)F)c1`, the EC50 was determined as 106 nM.

Consider `Cc1ccoc1C(=O)Nc1ccc(N2C(=O)c3ccccc3C2=O)cn1`, for which the EC50 is more than 10000 nM.

Take `Cc1cc(NC(=O)c2occc2C)ccc1N1C(=O)c2cccc(C)c2C1=O`: the EC50 stood at 21 nM.

Take `Cc1cc(NC(=O)c2occc2C)ccc1N1C(=O)c2cccc(Cl)c2C1=O`: the EC50 turned out to be 49 nM.

For `Cc1ccoc1C(=O)Nc1ccc(N2C(=O)c3cccc(Cl)c3C2=O)cc1`, the EC50 is 29 nM.

Take `Cc1ccoc1C(=O)Nc1ccc(N2C(=O)c3cccc(F)c3C2=O)c(F)c1`: the EC50 was 35 nM.

Regarding `COc1cc(NC(=O)c2occc2C)ccc1N1C(=O)c2ccccc2C1=O`, the EC50 stood at 46 nM.

As to `Cc1ccoc1C(=O)Nc1ccc(N2C(=O)c3cccc(F)c3C2=O)c2ccccc12`, the EC50 turned out to be 20 nM.

With `COc1cc(NC(=O)c2occc2C)ccc1N1C(=O)c2cccc(C)c2C1=O`, the half-maximal effective concentration (EC50) came to 49 nM.

For `Cc1cc(N2C(=O)c3ccccc3C2=O)ccc1NC(=O)c1occc1C`, the EC50 came to 15 nM.

For the molecule `Cc1ccoc1C(=O)Nc1cnc(N2C(=O)c3cccc(F)c3C2=O)nc1`, the EC50 was determined as 5330 nM.

For `Cc1ccoc1C(=O)Nc1ccc(N2C(=O)c3ccccc3C2=O)cc1`, the EC50 turned out to be 48 nM.

Turning to `Cc1ccoc1C(=O)Nc1ncc(N2C(=O)c3ccccc3C2=O)cn1`, the EC50 was more than 10000 nM.

Another assay addresses T1, Metabotropic glutamate receptor 1. Kind of assay: Positive allosteric modulation of human mGluR1 by calcium mobilization assay relative to control. It counts as functional.
Details: not given
A general note: Calcium assays in cells follow changes in intracellular calcium, usually with a dye or a luminescent sensor.
Target sequence in this assay (Q13255 19-1194 limits assumed): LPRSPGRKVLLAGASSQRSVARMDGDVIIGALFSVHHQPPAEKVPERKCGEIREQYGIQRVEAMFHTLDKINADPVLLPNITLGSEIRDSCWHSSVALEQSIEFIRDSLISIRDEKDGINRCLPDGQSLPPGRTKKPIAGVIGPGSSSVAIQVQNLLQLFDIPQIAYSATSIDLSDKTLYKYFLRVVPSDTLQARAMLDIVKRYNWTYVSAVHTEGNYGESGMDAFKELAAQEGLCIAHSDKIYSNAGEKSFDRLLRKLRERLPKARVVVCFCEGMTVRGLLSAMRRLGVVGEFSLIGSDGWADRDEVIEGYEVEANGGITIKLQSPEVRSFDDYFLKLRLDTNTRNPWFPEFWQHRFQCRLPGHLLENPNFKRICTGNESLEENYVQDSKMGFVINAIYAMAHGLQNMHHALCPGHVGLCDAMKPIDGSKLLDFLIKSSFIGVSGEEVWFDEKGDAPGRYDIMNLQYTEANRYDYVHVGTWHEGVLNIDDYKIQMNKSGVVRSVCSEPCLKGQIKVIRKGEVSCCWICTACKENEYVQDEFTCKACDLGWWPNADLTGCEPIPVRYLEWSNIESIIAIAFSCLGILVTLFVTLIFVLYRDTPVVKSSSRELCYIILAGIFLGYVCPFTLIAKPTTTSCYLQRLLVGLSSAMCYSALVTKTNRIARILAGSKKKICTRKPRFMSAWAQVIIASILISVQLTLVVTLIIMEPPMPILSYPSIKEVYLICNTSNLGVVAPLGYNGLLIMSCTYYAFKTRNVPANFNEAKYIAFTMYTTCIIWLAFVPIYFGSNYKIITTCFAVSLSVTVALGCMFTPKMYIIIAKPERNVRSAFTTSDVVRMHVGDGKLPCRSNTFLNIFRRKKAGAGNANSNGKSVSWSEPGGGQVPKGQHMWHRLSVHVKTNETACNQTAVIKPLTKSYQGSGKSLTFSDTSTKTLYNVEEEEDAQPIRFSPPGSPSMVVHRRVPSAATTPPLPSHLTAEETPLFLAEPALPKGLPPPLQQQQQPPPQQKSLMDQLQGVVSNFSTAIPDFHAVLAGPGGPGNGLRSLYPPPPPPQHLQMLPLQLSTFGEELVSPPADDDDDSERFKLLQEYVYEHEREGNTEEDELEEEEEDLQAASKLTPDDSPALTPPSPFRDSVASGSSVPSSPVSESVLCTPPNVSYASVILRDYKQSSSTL
In the case of `Cc1ccoc1C(=O)Nc1cnc(N2C(=O)c3ccccc3C2=O)nc1`, the %max amounted to 89%.

Take `Cc1ccoc1C(=O)Nc1ccc(N2C(=O)c3cccc(C)c3C2=O)c2ccccc12`: the %max was found to be 88%.

Regarding `Cc1ccoc1C(=O)Nc1ccc(N2C(=O)c3cccc(F)c3C2=O)nc1`, the %max came to 93%.

Regarding `Cc1ccoc1C(=O)Nc1ccc(N2C(=O)c3cccc(C)c3C2=O)nc1`, the %max was 105%.

As for `Cc1ccoc1C(=O)Nc1cnc(N2C(=O)c3cccc(C)c3C2=O)nc1`, the %max was 111%.

With `Cc1ccoc1C(=O)Nc1ccc(N2C(=O)c3cccc(Cl)c3C2=O)c(C(F)(F)F)c1`, the %max was found to be 105%.

As to `Cc1cc(NC(=O)c2occc2C)ccc1N1C(=O)c2cccc(C)c2C1=O`, the %max came out at 100%.

Consider `Cc1cc(NC(=O)c2occc2C)ccc1N1C(=O)c2cccc(Cl)c2C1=O`, for which the %max stood at 117%.

Take `Cc1ccoc1C(=O)Nc1ccc(N2C(=O)c3cccc(Cl)c3C2=O)cc1`: the %max was 101%.

For `Cc1ccoc1C(=O)Nc1ccc(N2C(=O)c3cccc(F)c3C2=O)c(F)c1`, the %max turned out to be 104%.

On to `COc1cc(NC(=O)c2occc2C)ccc1N1C(=O)c2ccccc2C1=O`, for which the %max is 96%.

For `Cc1ccoc1C(=O)Nc1ccc(N2C(=O)c3cccc(F)c3C2=O)c2ccccc12`, the %max stood at 90%.

`COc1cc(NC(=O)c2occc2C)ccc1N1C(=O)c2cccc(C)c2C1=O`: the %max was determined as 94%.

Take `Cc1cc(N2C(=O)c3ccccc3C2=O)ccc1NC(=O)c1occc1C`: the %max is 90%.

For `Cc1ccoc1C(=O)Nc1cnc(N2C(=O)c3cccc(F)c3C2=O)nc1`, the %max was 99%.

As for `Cc1ccoc1C(=O)Nc1ccc(N2C(=O)c3ccccc3C2=O)cc1`, the %max turned out to be 82%.

The next assay concerns the target T2, Metabotropic glutamate receptor 4 (Homo sapiens, UniProt Q14833). Kind of assay: Positive allosteric modulation of human mGluR4 by calcium mobilization assay.
Details: not given
It counts as functional.
For the molecule `Cc1ccoc1C(=O)Nc1cnc(N2C(=O)c3ccccc3C2=O)nc1`, the EC50 was 4670 nM.

Consider `Cc1ccoc1C(=O)Nc1ccc(N2C(=O)c3cccc(C)c3C2=O)c2ccccc12`, for which the EC50 is 429 nM.

As for `Cc1ccoc1C(=O)Nc1ccc(N2C(=O)c3cccc(F)c3C2=O)nc1`, the EC50 is 3550 nM.

Regarding `Cc1ccoc1C(=O)Nc1ccc(N2C(=O)c3cccc(C)c3C2=O)nc1`, the EC50 came out at 5000 nM.

Consider `Cc1ccoc1C(=O)Nc1cnc(N2C(=O)c3cccc(C)c3C2=O)nc1`, for which the EC50 was 4470 nM.

As for `Cc1ccoc1C(=O)Nc1ccc(N2C(=O)c3cccc(Cl)c3C2=O)c(C(F)(F)F)c1`, the 50% effective concentration (EC50) was 2470 nM.

As to `Cc1ccoc1C(=O)Nc1ccc(N2C(=O)c3ccccc3C2=O)cn1`, the EC50 was more than 10000 nM.

With `Cc1cc(NC(=O)c2occc2C)ccc1N1C(=O)c2cccc(C)c2C1=O`, the half-maximal effective concentration (EC50) worked out at 422 nM.

For the molecule `Cc1cc(NC(=O)c2occc2C)ccc1N1C(=O)c2cccc(Cl)c2C1=O`, the EC50 amounted to 1010 nM.

With `Cc1ccoc1C(=O)Nc1ccc(N2C(=O)c3cccc(Cl)c3C2=O)cc1`, the EC50 turned out to be 483 nM.

Regarding `Cc1ccoc1C(=O)Nc1ccc(N2C(=O)c3cccc(F)c3C2=O)c(F)c1`, the EC50 was determined as 674 nM.

`COc1cc(NC(=O)c2occc2C)ccc1N1C(=O)c2ccccc2C1=O`: the EC50 was 1180 nM.

Consider `Cc1ccoc1C(=O)Nc1ccc(N2C(=O)c3cccc(F)c3C2=O)c2ccccc12`, for which the EC50 was 809 nM.

In the case of `COc1cc(NC(=O)c2occc2C)ccc1N1C(=O)c2cccc(C)c2C1=O`, the EC50 amounted to 882 nM.

In the case of `Cc1cc(N2C(=O)c3ccccc3C2=O)ccc1NC(=O)c1occc1C`, the EC50 is 609 nM.

`Cc1ccoc1C(=O)Nc1cnc(N2C(=O)c3cccc(F)c3C2=O)nc1`: the EC50 is more than 10000 nM.

Turning to `Cc1ccoc1C(=O)Nc1ccc(N2C(=O)c3ccccc3C2=O)cc1`, the EC50 was more than 10000 nM.

Consider `Cc1ccoc1C(=O)Nc1ncc(N2C(=O)c3ccccc3C2=O)cn1`, for which the EC50 is more than 10000 nM.

A further assay addresses T2, Metabotropic glutamate receptor 4. Kind of assay: Positive allosteric modulation of human mGluR4 by calcium mobilization assay relative to PHCCC. It counts as functional.
Details: not given
For `Cc1ccoc1C(=O)Nc1cnc(N2C(=O)c3ccccc3C2=O)nc1`, the %max is 23%.

For the molecule `Cc1ccoc1C(=O)Nc1ccc(N2C(=O)c3cccc(C)c3C2=O)c2ccccc12`, the %max was 103%.

`Cc1ccoc1C(=O)Nc1ccc(N2C(=O)c3cccc(F)c3C2=O)nc1`: the %max was 19%.

Regarding `Cc1ccoc1C(=O)Nc1ccc(N2C(=O)c3cccc(C)c3C2=O)nc1`, the %max is 100%.

For the molecule `Cc1ccoc1C(=O)Nc1cnc(N2C(=O)c3cccc(C)c3C2=O)nc1`, the %max was determined as 104%.

Regarding `Cc1ccoc1C(=O)Nc1ccc(N2C(=O)c3cccc(Cl)c3C2=O)c(C(F)(F)F)c1`, the %max amounted to 120%.

On to `Cc1cc(NC(=O)c2occc2C)ccc1N1C(=O)c2cccc(C)c2C1=O`, for which the %max amounted to 122%.

Take `Cc1cc(NC(=O)c2occc2C)ccc1N1C(=O)c2cccc(Cl)c2C1=O`: the %max is 127%.

In the case of `Cc1ccoc1C(=O)Nc1ccc(N2C(=O)c3cccc(Cl)c3C2=O)cc1`, the %max amounted to 35%.

Regarding `Cc1ccoc1C(=O)Nc1ccc(N2C(=O)c3cccc(F)c3C2=O)c(F)c1`, the %max is 78%.

`COc1cc(NC(=O)c2occc2C)ccc1N1C(=O)c2ccccc2C1=O`: the %max is 50%.

As for `Cc1ccoc1C(=O)Nc1ccc(N2C(=O)c3cccc(F)c3C2=O)c2ccccc12`, the %max was 83%.

As to `COc1cc(NC(=O)c2occc2C)ccc1N1C(=O)c2cccc(C)c2C1=O`, the %max worked out at 107%.

Consider `Cc1cc(N2C(=O)c3ccccc3C2=O)ccc1NC(=O)c1occc1C`, for which the %max is 52%.

Consider `Cc1ccoc1C(=O)Nc1cnc(N2C(=O)c3cccc(F)c3C2=O)nc1`, for which the %max turned out to be 24%.

Another assay is filed under the species Homo sapiens. Briefly: Selectivity ratio of EC50 for human mGluR4 to EC50 for human mGluR1.
Details: not given
With `Cc1ccoc1C(=O)Nc1cnc(N2C(=O)c3ccccc3C2=O)nc1`, the Ratio EC50 turned out to be 1.01.

In the case of `Cc1ccoc1C(=O)Nc1ccc(N2C(=O)c3cccc(C)c3C2=O)c2ccccc12`, the Ratio EC50 worked out at 27.3.

For `Cc1ccoc1C(=O)Nc1ccc(N2C(=O)c3cccc(F)c3C2=O)nc1`, the Ratio EC50 amounted to 17.9.

Consider `Cc1ccoc1C(=O)Nc1ccc(N2C(=O)c3cccc(C)c3C2=O)nc1`, for which the Ratio EC50 was determined as 52.7.

Regarding `Cc1ccoc1C(=O)Nc1cnc(N2C(=O)c3cccc(C)c3C2=O)nc1`, the Ratio EC50 worked out at 5.95.

Turning to `Cc1ccoc1C(=O)Nc1ccc(N2C(=O)c3cccc(Cl)c3C2=O)c(C(F)(F)F)c1`, the Ratio EC50 stood at 23.3.

As to `Cc1cc(NC(=O)c2occc2C)ccc1N1C(=O)c2cccc(C)c2C1=O`, the Ratio EC50 was determined as 19.8.

On to `Cc1cc(NC(=O)c2occc2C)ccc1N1C(=O)c2cccc(Cl)c2C1=O`, for which the Ratio EC50 came out at 20.5.

In the case of `Cc1ccoc1C(=O)Nc1ccc(N2C(=O)c3cccc(Cl)c3C2=O)cc1`, the Ratio EC50 was determined as 16.7.

In the case of `Cc1ccoc1C(=O)Nc1ccc(N2C(=O)c3cccc(F)c3C2=O)c(F)c1`, the Ratio EC50 came to 19.3.

Consider `COc1cc(NC(=O)c2occc2C)ccc1N1C(=O)c2ccccc2C1=O`, for which the Ratio EC50 was found to be 25.6.

On to `Cc1ccoc1C(=O)Nc1ccc(N2C(=O)c3cccc(F)c3C2=O)c2ccccc12`, for which the Ratio EC50 was determined as 41.1.

For the molecule `COc1cc(NC(=O)c2occc2C)ccc1N1C(=O)c2cccc(C)c2C1=O`, the Ratio EC50 was 18.

For the molecule `Cc1cc(N2C(=O)c3ccccc3C2=O)ccc1NC(=O)c1occc1C`, the Ratio EC50 came to 40.6.

Source of the values: ChEMBL document CHEMBL3632577, “Lead optimization of the VU0486321 series of mGlu1 PAMs. Part 1: SAR of modifications to the central aryl core” (Bioorg Med Chem Lett, 2015).
